Results: the NIST ThermoML archive (doi:10.1021/je900502s)
± gives the expanded uncertainty stated by the source.

Tests used:
[1] = for surface tension liquid-gas: Pendant drop shape; for mass density: 101.33 kPa, Liquid, Pycnometric method
[2] = 293.15 K; 101 kPa; Liquid mixture 1; pendant drop method

SMILES | surface tension liquid-gas ([1]; 293.15 K) [mN/m] | mass density ([1]; 293.15 K) [kg/m3] | other results
CCCCCCCC[N+](C)(CCCCCCCC)CCCCCCCC.[Cl-] [N-methyl-N,N-dioctyl-1-octanaminium chloride] | 26.44 ± 0.49 | 891 ± 6 | mass density ([1]; 298.15 K): 896 ± 18 kg/m3
CCCCn1cc[n+](C)c1C.O=S(=O)([N-]S(=O)(=O)C(F)(F)F)C(F)(F)F | 26.66 ± 0.49 | 1425 ± 24 | –
CCCCCCN(CCCCCC)C(N(C)C)=[N+](CCCCCC)CCCCCC.[Cl-] | 28.95 ± 0.57 | – | mass density ([1]; 298.15 K): 943 ± 50 kg/m3
COCCn1cc[n+](C)c1.F[B-](F)(F)F [1-(2-methoxyethyl)-3-methyl-imidazolium tetrafluoroborate] | 35.31 ± 0.64 | 1306 ± 7 | –
CCCCCCCCn1cc[n+](C)c1.O=S(=O)([N-]S(=O)(=O)C(F)(F)F)C(F)(F)F + O | – | – | interfacial tension [2]: 22.81 ± 0.41 mN/m
CCCCCCCCO [octan-1-ol] + O | – | – | interfacial tension [2]: 8.3 ± 0.5 mN/m
CCCCn1cc[n+](C)c1.F[B-](F)(F)F [1-butyl-3-methylimidazolium tetrafluoroborate] | 44.28 ± 0.79 | 1212 ± 5 | mass density ([1]; 298.15 K): 1217 ± 12 kg/m3
CCCCCCCCCCn1cc[n+](C)c1.N#C[N-]C#N [1-decyl-3-methylimidazolium dicyanamide] | 31.15 ± 0.57 | 1003 ± 5 | –
CCCCCCCC[N+](C)(CCCCCCCC)CCCCCCCC.N#C[N-]C#N [N,N,N-trioctyl-N-methylammonium dicyanamide] | 28.8 ± 0.53 | – | mass density ([1]; 298.15 K): 890 ± 3 kg/m3
CCCCCCCC[n+]1ccn(C)c1.[Cl-] [1-methyl-3-octylimidazolium chloride] | 26.2 ± 0.57 | 971 ± 6 | –
CCCCCCCCCCCCCC[P+](CCCCCC)(CCCCCC)CCCCCC.Cc1ccc(S(=O)(=O)[O-])cc1 [tetradecyl(trihexyl)phosphonium tosylate] | 23.2 ± 0.53 | – | mass density ([1]; 298.15 K): 1003 ± 22 kg/m3
CCCCCCCCO [octan-1-ol] | – | 831 ± 3 | –
O [water] | – | 1013 ± 5 | –
CCCCCCCCn1cc[n+](C)c1.N#C[N-]C#N [3-methyl-1-octylimidazolium dicyanamide] | 36.86 ± 0.66 | 1013 ± 3 | –
CCCCCCCCCCCCCC[P+](CCCCCC)(CCCCCC)CCCCCC.[Cl-] [trihexyl(tetradecyl)phosphonium chloride] | 30.7 ± 0.56 | 918 ± 6 | –
CCCCCCCCCCCCCC[P+](CCCCCC)(CCCCCC)CCCCCC.[Cl-] [trihexyl(tetradecyl)phosphonium chloride] + O | – | – | interfacial tension [2]: 6.11 ± 0.17 mN/m

SMILES | surface tension liquid-gas ([1]; 293.15 K) [mN/m] | mass density ([1]; 293.15 K) [kg/m3] | other results
CCCCn1cc[n+](C)c1C.O=S(=O)([N-]S(=O)(=O)C(F)(F)F)C(F)(F)F + O | – | – | interfacial tension [2]: 17.04 ± 1.3 mN/m
ClCCl [dichloromethane] | – | 1327 ± 9 | –
OCCO [1,2-ethanediol] | – | 1121 ± 7 | –
CCCCn1cc[n+](C)c1.N#CN=C=[N-] [1-butyl-3-methylimidazolium dicyanamide] | 38.14 ± 0.68 | 1066 ± 10 | –
CCCCCCCC[n+]1ccn(C)c1.F[B-](F)(F)F [1-methyl-3-octylimidazolium tetrafluoroborate] | 33.22 ± 0.6 | 1110 ± 5 | mass density ([1]; 298.15 K): 1115 ± 46 kg/m3
CCCCCCCCCCCCCC[P+](CCCCCC)(CCCCCC)CCCCCC.N#C[N-]C#N [tetradecyl(trihexyl)phosphonium dicyanamide] | 30.99 ± 0.61 | – | –
CCCCCCCC[N+](C)(CCCCCCCC)CCCCCCCC.[Cl-] [N-methyl-N,N-dioctyl-1-octanaminium chloride] + O | – | – | interfacial tension [2]: 3.66 ± 0.36 mN/m
Cn1cc[n+](CCO)c1.N#C[N-]C#N [3-(2-hydroxyethyl)-1-methyl-1H-imidazol-3-ium dicyanoazanide] | 45.75 ± 0.81 | 1179 ± 3 | –
CCCC[n+]1ccn(C)c1.O=S(=O)([N-]S(=O)(=O)C(F)(F)F)C(F)(F)F + O | – | – | interfacial tension [2]: 15.15 ± 0.55 mN/m
CCCCCCN(CCCCCC)C(N(C)C)=[N+](CCCCCC)CCCCCC.N#C[N-]C#N | 21.35 ± 0.49 | – | –
CCCCCCCC[N+](C)(CCCCCCCC)CCCCCCCC.O=S(=O)([N-]S(=O)(=O)C(F)(F)F)C(F)(F)F | 22.77 ± 0.43 | – | –
CCOS(=O)(=O)[O-].CCn1cc[n+](C)c1 [1-ethyl-3-methylimidazolium ethyl sulfate] | 46.13 ± 0.91 | 1242 ± 4 | –
CCCCCCCCCCn1cc[n+](C)c1.F[B-](F)(F)F [1-decyl-3-methylimidazolium tetrafluoroborate] | 23.65 ± 0.48 | 1076 ± 3 | –
CCCC[n+]1ccn(C)c1.O=S(=O)([N-]S(=O)(=O)C(F)(F)F)C(F)(F)F | – | 1452 ± 13 | surface tension liquid-gas ([1]; 298.15 K): 38.37 ± 0.69 mN/m
CCCCCCCCn1cc[n+](C)c1.O=S(=O)([N-]S(=O)(=O)C(F)(F)F)C(F)(F)F | 30.55 ± 0.56 | 1340 ± 4 | –
